Holding throughout (assay type): ADME
The target of data set [1] is T1, CYP3A4 (Homo sapiens, UniProt P08684). The data set is described as follows: (§1) Mechanism based inhibition of human cytochrome P450 3A4 measured by (14C)formaldehyde production from (N-methyl-14C)-erythromycin. The following applies: human, probe (N-methyl-14C)-erythromycin.
The target of data set [2] is T2, Cytochrome P450 3A4 (Homo sapiens, UniProt P08684). The data set is described as §1.
Data set [3] has as its target Cytochrome P450 2E1 (Homo sapiens, UniProt P05181). The data set is described as follows: Mechanism based inhibition of human cytochrome P450 2E1.
For data set [4], the target named is T1, CYP3A4. The data set is described as follows: (§2) Mechanism based inhibition of human cytochrome P450 3A4 measured by testosterone 6-beta hydroxylation. The following applies: probe testosterone (6-beta hydroxylation).
The target of data set [5] is T3, Cytochrome P450 1A2 (Homo sapiens, UniProt P05177).
T3 sequence (P05177 whole entry): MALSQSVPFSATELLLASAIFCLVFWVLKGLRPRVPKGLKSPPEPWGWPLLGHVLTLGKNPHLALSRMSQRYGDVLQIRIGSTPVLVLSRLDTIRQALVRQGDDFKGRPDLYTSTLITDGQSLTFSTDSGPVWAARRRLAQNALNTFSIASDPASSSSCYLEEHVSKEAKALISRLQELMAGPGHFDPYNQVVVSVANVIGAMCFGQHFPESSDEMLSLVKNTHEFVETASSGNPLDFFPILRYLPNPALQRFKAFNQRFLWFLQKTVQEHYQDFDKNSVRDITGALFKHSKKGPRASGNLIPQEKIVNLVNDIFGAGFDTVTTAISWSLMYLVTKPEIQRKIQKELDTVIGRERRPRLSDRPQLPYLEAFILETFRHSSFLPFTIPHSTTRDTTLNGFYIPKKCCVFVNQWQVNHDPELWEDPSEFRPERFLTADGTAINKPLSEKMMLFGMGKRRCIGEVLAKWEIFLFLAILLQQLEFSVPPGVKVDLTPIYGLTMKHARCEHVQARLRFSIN
The data set is described as follows: Mechanism based inhibition of human cytochrome P450 1A2 measured by 7-ethoxyresorufin O-deethylation (EROD).

Data set [6] addresses T4, CYP2A6 (Homo sapiens, UniProt P11509).
T4 sequence (P11509 whole entry): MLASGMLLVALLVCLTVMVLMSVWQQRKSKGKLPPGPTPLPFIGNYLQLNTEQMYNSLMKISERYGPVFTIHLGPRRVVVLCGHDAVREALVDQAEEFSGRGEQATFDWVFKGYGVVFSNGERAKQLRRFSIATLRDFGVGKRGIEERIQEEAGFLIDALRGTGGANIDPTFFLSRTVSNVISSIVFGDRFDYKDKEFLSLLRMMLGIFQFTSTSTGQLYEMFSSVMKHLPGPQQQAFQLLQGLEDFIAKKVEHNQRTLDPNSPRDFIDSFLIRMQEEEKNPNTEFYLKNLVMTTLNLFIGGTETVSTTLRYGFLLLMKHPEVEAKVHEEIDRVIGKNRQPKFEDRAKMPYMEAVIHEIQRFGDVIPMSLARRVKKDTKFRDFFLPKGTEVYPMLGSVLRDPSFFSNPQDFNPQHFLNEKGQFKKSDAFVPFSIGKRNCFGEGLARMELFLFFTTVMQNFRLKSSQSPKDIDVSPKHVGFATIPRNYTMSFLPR
In words: (§3) Mechanism based inhibition of human cytochrome P450 2A6 measured by coumarin 7-hydroxylation. The following applies: probe coumarin.

In data set [7] the target is T5, Cytochrome P450 2B1 (Rattus norvegicus, UniProt P00176).
T5 sequence (P00176 whole entry): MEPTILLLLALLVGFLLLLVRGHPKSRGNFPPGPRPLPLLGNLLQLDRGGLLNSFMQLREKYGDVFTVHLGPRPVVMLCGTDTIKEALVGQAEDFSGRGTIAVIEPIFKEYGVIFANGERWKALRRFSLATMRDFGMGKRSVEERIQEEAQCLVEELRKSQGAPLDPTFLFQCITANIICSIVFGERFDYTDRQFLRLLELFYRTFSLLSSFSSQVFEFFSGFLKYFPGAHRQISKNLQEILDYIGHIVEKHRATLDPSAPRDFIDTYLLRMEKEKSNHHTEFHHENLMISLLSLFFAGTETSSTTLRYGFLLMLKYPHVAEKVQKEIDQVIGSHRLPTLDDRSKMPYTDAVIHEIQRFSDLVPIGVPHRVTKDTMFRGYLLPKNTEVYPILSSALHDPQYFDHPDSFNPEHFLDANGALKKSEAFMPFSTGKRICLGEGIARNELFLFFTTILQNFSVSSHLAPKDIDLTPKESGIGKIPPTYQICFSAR
In words: Mechanism based inhibition of rat cytochrome P450 2B1.

Data set [8] deals with T5, Cytochrome P450 2B1. In words: Mechanism based inhibition of rat cytochrome P450 CYP2B1 measured by 7-EFC O-deethylation activity. The following applies: rat.
Data set [9] has as its target T6, Cytochrome P450 1A1 (Homo sapiens, UniProt P04798).
T6 sequence (P04798 whole entry): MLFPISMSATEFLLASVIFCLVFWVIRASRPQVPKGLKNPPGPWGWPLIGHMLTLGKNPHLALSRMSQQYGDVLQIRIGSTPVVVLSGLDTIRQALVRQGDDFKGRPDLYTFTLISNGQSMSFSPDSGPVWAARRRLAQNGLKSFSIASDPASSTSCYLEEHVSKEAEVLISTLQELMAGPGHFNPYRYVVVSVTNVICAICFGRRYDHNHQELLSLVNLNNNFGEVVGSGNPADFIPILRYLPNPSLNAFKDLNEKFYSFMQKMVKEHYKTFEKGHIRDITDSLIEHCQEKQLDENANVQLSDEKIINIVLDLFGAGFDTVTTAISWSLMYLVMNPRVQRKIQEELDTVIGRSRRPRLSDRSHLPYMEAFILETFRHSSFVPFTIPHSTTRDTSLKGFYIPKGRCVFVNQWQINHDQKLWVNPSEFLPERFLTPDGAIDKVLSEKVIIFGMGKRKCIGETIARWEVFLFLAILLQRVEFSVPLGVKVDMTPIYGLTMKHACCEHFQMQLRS
The data set is described as follows: Mechanism based inhibition of human cytochrome P450 1A1 measured by 7-ethoxyresorufin O-deethylation (EROD).

Data set [10] addresses T2, Cytochrome P450 3A4. The description is as §2.
Data set [11] addresses T7, Cytochrome P450 2A6 (Homo sapiens, UniProt P11509).
T7 sequence (P11509 whole entry): T4 sequence (P11509 whole entry)
The description is as §3.

T1 sequence (P08684 whole entry): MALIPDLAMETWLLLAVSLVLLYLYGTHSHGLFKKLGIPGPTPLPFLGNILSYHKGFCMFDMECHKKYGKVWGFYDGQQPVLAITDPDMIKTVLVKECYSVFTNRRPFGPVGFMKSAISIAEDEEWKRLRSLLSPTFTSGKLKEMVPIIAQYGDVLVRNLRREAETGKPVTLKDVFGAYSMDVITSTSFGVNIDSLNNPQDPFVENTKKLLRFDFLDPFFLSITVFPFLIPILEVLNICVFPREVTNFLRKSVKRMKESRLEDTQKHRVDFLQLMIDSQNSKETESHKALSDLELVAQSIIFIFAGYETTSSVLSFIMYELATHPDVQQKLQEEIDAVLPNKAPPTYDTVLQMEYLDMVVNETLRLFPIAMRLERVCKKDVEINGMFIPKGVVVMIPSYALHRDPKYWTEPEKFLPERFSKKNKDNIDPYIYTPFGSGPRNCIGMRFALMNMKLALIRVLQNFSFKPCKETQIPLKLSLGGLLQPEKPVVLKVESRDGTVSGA
T2 sequence (P08684 whole entry): as above
Cytochrome P450 2E1, sequence (P05181 whole entry): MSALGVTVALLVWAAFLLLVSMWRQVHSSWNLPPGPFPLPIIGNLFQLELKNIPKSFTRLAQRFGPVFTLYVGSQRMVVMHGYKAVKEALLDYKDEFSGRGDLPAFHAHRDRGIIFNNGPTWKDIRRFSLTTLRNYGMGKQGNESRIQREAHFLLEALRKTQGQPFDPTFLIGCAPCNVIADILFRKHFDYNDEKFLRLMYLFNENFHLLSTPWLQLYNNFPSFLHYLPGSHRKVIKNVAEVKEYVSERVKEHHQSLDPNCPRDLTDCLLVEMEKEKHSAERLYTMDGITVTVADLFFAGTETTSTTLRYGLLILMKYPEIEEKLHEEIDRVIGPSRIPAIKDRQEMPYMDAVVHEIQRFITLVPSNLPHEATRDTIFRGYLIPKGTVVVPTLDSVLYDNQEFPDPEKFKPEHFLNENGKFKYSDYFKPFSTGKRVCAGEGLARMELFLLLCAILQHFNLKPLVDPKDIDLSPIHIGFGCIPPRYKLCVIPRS

A word on the kinact: it is the maximal first-order rate at which the target is inactivated. Consider `COc1cc(C[C@H]2C(=O)OC[C@@H]2Cc2ccc3c(c2)OCO3)cc(OC)c1OC`, for which the inactivation rate constant (kinact) in data set [1] was 0.00533 s⁻¹. Moreover, in data set [2], the Ki worked out at 0.177 µM.

Consider `COc1cc(C[C@H]2C(O)OC[C@@H]2Cc2ccc3c(c2)OCO3)cc(OC)c1OC` (stereo partly drawn), for which, in [1], the maximal inactivation rate constant (kinact) is 0.00422 s⁻¹. For the same compound, the Ki in data set [2] came out at 0.082 µM. In the case of `COc1cc(CNC(=O)CCCC/C=C/C(C)C)ccc1O` [CAPSAICIN], the mechanism based inhibition entry in [3] was “Cytochrome P450 mechanistic inhibitor: PMID 7746093”. Consider `NNc1nnc(NN)c2ccccc12` [DIHYDRALAZINE], for which the kinact in data set [4] is 0.000785 s⁻¹. `OC[C@H](Cc1ccc2c(c1)OCO2)[C@H](CO)Cc1ccc2c(c1)OCO2` [DIHYDROCUBEBIN]: the maximal inactivation rate constant (kinact) in [1] was 0.00375 s⁻¹. In [2], the Ki was determined as 0.142 µM. On to `C#C` [ETHYNE], for which, in [5], the mechanism based inhibition result is given as “Cytochrome P450 mechanistic inhibitor: PMID 9760279”. Take `O=C1OC[C@H](Cc2ccc3c(c2)OCO3)[C@H]1Cc1ccc2c(c1)OCO2` [HINOKININ]: the kinact in data set [1] is 0.00525 s⁻¹. For the same compound, the Ki in [2] was 0.373 µM. For the compound `CN1CCC[C@H]1c1cccnc1` [NICOTINE], in data set [6], the kinact was 1.18 s⁻¹. Regarding `Cn1cccc1-c1cccnc1` [NICOTYRINE], in [6], the inactivation rate constant (kinact) is 0.104 s⁻¹.

For the compound `O=NOO` [PEROXYNITRITE], the mechanism based inhibition result in data set [7] was “Cytochrome P450 mechanistic inhibitor: PMID 12588183”; in data set [8], “Cytochrome P450 mechanistic inhibitor: PMID 9760281”. Regarding `Oc1ccc(/C=C/c2cc(O)cc(O)c2)cc1` [RESVERATROL], the mechanism based inhibition result in [9] is listed as “Cytochrome P450 mechanistic inhibitor: PMID 11259321”; in [10], “Cytochrome P450 mechanistic inhibitor: PMID 11701226”. For the compound `O=c1c2ccccc2nc2n1CCc1c-2[nH]c2ccccc12` [RUTAECARPINE], the kinact in [1] is 0.00645 s⁻¹. Further, the Ki in data set [2] was determined as 108 µM. In turn, `S=P(N1CC1)(N1CC1)N1CC1` [THIOTEPA] yielded a Ki in [7] of 31 µM. Turning to `C=C[C@]1(C)C[C@@H](OC(=O)CSCCN(CC)CC)[C@]2(C)[C@H](C)CC[C@]3(CCC(=O)[C@H]32)[C@@H](C)[C@@H]1O` [TIAMULIN], the mechanism based inhibition entry in data set [10] is “Cytochrome P450 mechanistic inhibitor: PMID 7575636”. As for `CCCC(CCC)C(=O)O` [VALPROIC ACID], the kinact in data set [6] (human) is 0.0008 s⁻¹. Besides, the Ki in data set [11] came to 9150 µM.

These data come from ChEMBL document CHEMBL1743341, “Cytochrome p450 enzymes mechanism based inhibitors: common sub-structures and reactivity” (Curr Drug Metab, 2005).
